The source of these data is patent US20260193293A1, “PEPTIDES CAPABLE OF INHIBITING PROTEIN-PROTEIN INTERACTIONS AT GABAB1A SUBUNIT AND USES THEREOF” (UNIVERSITY OF COPENHAGEN, priority 2022, published 2026).

Non-standard residues stand in square brackets, D forms with d. Residues, ends and D or L forms follow the SMILES beside them. NMeW = CN[C@@H](Cc1c[nH]c2ccccc12)C(=O)O; Cya = N[C@@H](CS(=O)(=O)O)C(=O)O; NMeI = CC[C@H](C)[C@H](NC)C(=O)O; NMeA = CN[C@@H](C)C(=O)O; Sar = CNCC(=O)O

The target of the first assay is Sushi domains (SD1/2) protein. In words: Fluorescence polarization (FP) competition assay with AJAP-1probe, calculated Ki. In kind it is binding. The settings on record: Table 8, Ala-, D-amino acids and N-methylation scans of AJAP-1WT; read-out: Ki (nM) mean ± SEM. The procedure, abridged: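 Competition against 25 nM TAMRA-labelled peptide probe binding SD1/2, in PBS pH 7.4 with 1% BSA at rt, read at 530/580 nm. IC50 from sigmoidal dose-response fits, at least triplicate; Ki calculated from IC50 using probe Kd from saturation binding.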
On to `CC[C@H](C)[C@H](NC(=O)[C@H](C)NC(=O)[C@H](CCC(=O)O)NC(=O)[C@@H](NC(=O)[C@H](CCC(=O)O)NC(C)=O)[C@@H](C)O)C(=O)N[C@@H](C)C(=O)N[C@@H](Cc1c[nH]c2ccccc12)C(=O)NCC(=O)N1CCC[C@H]1C(=O)N[C@H](C(=O)NCC(=O)N[C@@H](CC(=O)O)C(=O)N[C@@H](CCC(=O)O)C(=O)N[C@@H](CC(=O)O)C(N)=O)[C@@H](C)O` [ETEAIAWGPTGDED] (Ac-ETEAIAWGPTGDED-NH2), for which the Ki (usually a dissociation constant, usually derived from enzyme kinetics or from competition with a known ligand) was 688 ± 11 nM.

With `CC[C@H](C)[C@@H](C(=O)N[C@@H](C)C(=O)N[C@@H](Cc1c[nH]c2ccccc12)C(=O)NCC(=O)N1CCC[C@H]1C(=O)N[C@H](C(=O)NCC(=O)N[C@@H](CC(=O)O)C(=O)N[C@@H](CCC(=O)O)C(=O)N[C@@H](CC(=O)O)C(N)=O)[C@@H](C)O)N(C)C(=O)[C@H](Cc1ccccc1)NC(=O)[C@H](CCC(=O)O)NC(=O)[C@@H](NC(=O)[C@H](CCC(=O)O)NC(C)=O)[C@@H](C)O` [ETEF(N-Me-I)AWGPTGDED] (Ac-ETEF[NMeI]AWGPTGDED-NH2), the Ki was 33 ± 1 nM.

Regarding `CC[C@H](C)[C@H](NC(=O)[C@H](Cc1ccccc1)NC(=O)[C@H](CCC(=O)O)NC(=O)[C@@H](NC(=O)[C@H](CCC(=O)O)NC(C)=O)[C@@H](C)O)C(=O)N[C@@H](C)C(=O)N(C)[C@@H](Cc1c[nH]c2ccccc12)C(=O)NCC(=O)N1CCC[C@H]1C(=O)N[C@H](C(=O)NCC(=O)N[C@@H](CC(=O)O)C(=O)N[C@@H](CCC(=O)O)C(=O)N[C@@H](CC(=O)O)C(N)=O)[C@@H](C)O` [ETEFIA(N-Me-W)GPTGDED] (Ac-ETEFIA[NMeW]GPTGDED-NH2), the Ki was 46 ± 2 nM.

With `CC[C@H](C)[C@H](NC(=O)[C@H](Cc1ccccc1)NC(=O)[C@H](CCC(=O)O)NC(=O)[C@@H](NC(=O)[C@H](CCC(=O)O)NC(C)=O)[C@@H](C)O)C(=O)N[C@@H](C)C(=O)N[C@@H](Cc1c[nH]c2ccccc12)C(=O)NCC(=O)N[C@@H](C)C(=O)N[C@H](C(=O)NCC(=O)N[C@@H](CC(=O)O)C(=O)N[C@@H](CCC(=O)O)C(=O)N[C@@H](CC(=O)O)C(N)=O)[C@@H](C)O` [ETEFIAWGATGDED] (Ac-ETEFIAWGATGDED-NH2), the inhibition constant (Ki) is 291 ± 6 nM.

Regarding `CC[C@H](C)[C@H](NC(=O)[C@H](Cc1ccccc1)NC(=O)[C@H](CCC(=O)O)NC(=O)[C@@H](NC(=O)[C@H](CCC(=O)O)NC(C)=O)[C@@H](C)O)C(=O)N[C@@H](C)C(=O)N[C@@H](Cc1c[nH]c2ccccc12)C(=O)NCC(=O)N1CCC[C@H]1C(=O)N[C@@H](C)C(=O)NCC(=O)N[C@@H](CC(=O)O)C(=O)N[C@@H](CCC(=O)O)C(=O)N[C@@H](CC(=O)O)C(N)=O` [ETEFIAWGPAGDED] (Ac-ETEFIAWGPAGDED-NH2), the inhibitory constant (Ki) is 89 ± 2 nM.

On to `CC[C@H](C)[C@H](NC(=O)[C@H](Cc1ccccc1)NC(=O)[C@H](CCC(=O)O)NC(=O)[C@@H](NC(=O)[C@H](CCC(=O)O)NC(C)=O)[C@@H](C)O)C(=O)N[C@@H](C)C(=O)N[C@@H](Cc1c[nH]c2ccccc12)C(=O)NCC(=O)N1CCC[C@H]1C(=O)N[C@H](C(=O)NCC(=O)N[C@@H](CC(=O)O)C(=O)N[C@@H](CCC(=O)O)C(=O)N[C@@H](CC(=O)O)C(N)=O)[C@@H](C)CC` [ETEFIAWGPIGDED] (Ac-ETEFIAWGPIGDED-NH2), for which the Ki was 48 ± 2 nM.

Consider `CC[C@H](C)[C@H](NC(=O)[C@H](Cc1ccccc1)NC(=O)[C@H](CCC(=O)O)NC(=O)[C@@H](NC(=O)[C@H](CCC(=O)O)NC(C)=O)[C@@H](C)O)C(=O)N[C@@H](C)C(=O)N[C@@H](Cc1c[nH]c2ccccc12)C(=O)NCC(=O)N1CCC[C@H]1C(=O)N[C@H](C(=O)NCC(=O)N[C@@H](C)C(=O)N[C@@H](CCC(=O)O)C(=O)N[C@@H](CC(=O)O)C(N)=O)[C@@H](C)O` [ETEFIAWGPTGAED] (Ac-ETEFIAWGPTGAED-NH2), for which the Ki is 50 ± 1 nM.

The assay is the same for the next values; noted with them: Table 8, in μM; read-out: Ki (nM) mean ± SEM.
As for `CC(=O)N[C@@H](CCC(=O)O)C(=O)N[C@H](C(=O)N[C@@H](CCC(=O)O)C(=O)N[C@@H](Cc1ccccc1)C(=O)N[C@@H](C)C(=O)N[C@@H](C)C(=O)N[C@@H](Cc1c[nH]c2ccccc12)C(=O)NCC(=O)N1CCC[C@H]1C(=O)N[C@H](C(=O)NCC(=O)N[C@@H](CC(=O)O)C(=O)N[C@@H](CCC(=O)O)C(=O)N[C@@H](CC(=O)O)C(N)=O)[C@@H](C)O)[C@@H](C)O` [ETEFAAWGPTGDED] (Ac-ETEFAAWGPTGDED-NH2), the Ki is over 6250 nM.

Consider `CC[C@H](C)[C@H](NC(=O)[C@H](Cc1ccccc1)NC(=O)[C@H](CCC(=O)O)NC(=O)[C@@H](NC(=O)[C@H](CCC(=O)O)NC(C)=O)[C@@H](C)O)C(=O)N(C)[C@@H](C)C(=O)N[C@@H](Cc1c[nH]c2ccccc12)C(=O)NCC(=O)N1CCC[C@H]1C(=O)N[C@H](C(=O)NCC(=O)N[C@@H](CC(=O)O)C(=O)N[C@@H](CCC(=O)O)C(=O)N[C@@H](CC(=O)O)C(N)=O)[C@@H](C)O` [ETEFI(N-Me-A)WGPTGDED] (Ac-ETEFI[NMeA]WGPTGDED-NH2), for which the Ki was over 6250 nM.

For `CC[C@H](C)[C@H](NC(=O)[C@H](Cc1ccccc1)NC(=O)[C@H](CCC(=O)O)NC(=O)[C@@H](NC(=O)[C@H](CCC(=O)O)NC(C)=O)[C@@H](C)O)C(=O)N[C@@H](C)C(=O)N[C@@H](C)C(=O)NCC(=O)N1CCC[C@H]1C(=O)N[C@H](C(=O)NCC(=O)N[C@@H](CC(=O)O)C(=O)N[C@@H](CCC(=O)O)C(=O)N[C@@H](CC(=O)O)C(N)=O)[C@@H](C)O` [ETEFIAAGPTGDED] (Ac-ETEFIAAGPTGDED-NH2), the inhibition constant Ki is over 6250 nM.

With `CC[C@H](C)[C@H](NC(=O)[C@H](Cc1ccccc1)NC(=O)[C@H](CCC(=O)O)NC(=O)[C@@H](NC(=O)[C@H](CCC(=O)O)NC(C)=O)[C@@H](C)O)C(=O)N[C@@H](C)C(=O)N[C@@H](Cc1c[nH]c2ccccc12)C(=O)N(C)CC(=O)N1CCC[C@H]1C(=O)N[C@H](C(=O)NCC(=O)N[C@@H](CC(=O)O)C(=O)N[C@@H](CCC(=O)O)C(=O)N[C@@H](CC(=O)O)C(N)=O)[C@@H](C)O` [ETEFIAW(N-Me-G)PTGDED] (Ac-ETEFIAW[Sar]PTGDED-NH2), the Ki was over 6250 nM.

The same assay, now with this note: Table 11, deep mutational scanning validation variants of AJAP-1WT; read-out: Ki (nM) mean ± SEM.
In the case of `CC[C@H](C)[C@H](NC(=O)[C@H](Cc1ccccc1)NC(=O)[C@H](CCC(=O)O)NC(=O)[C@@H](NC(=O)[C@H](CCC(=O)O)NC(C)=O)[C@@H](C)O)C(=O)N[C@@H](C)C(=O)N[C@@H](Cc1c[nH]c2ccccc12)C(=O)NCC(=O)N1CCC[C@H]1C(=O)N[C@@H](Cc1ccccc1)C(=O)NCC(=O)N[C@@H](CC(=O)O)C(=O)N[C@@H](CCC(=O)O)C(=O)N[C@@H](CC(=O)O)C(N)=O` [ETEFIAWGPFGDED] (Ac-ETEFIAWGPFGDED-NH2), the Ki was 40 ± 1 nM.

With `CC[C@H](C)[C@H](NC(=O)[C@H](Cc1ccccc1)NC(=O)[C@H](CCC(=O)O)NC(=O)[C@@H](NC(=O)[C@H](CCC(=O)O)NC(C)=O)[C@@H](C)O)C(=O)N[C@@H](C)C(=O)N[C@@H](Cc1c[nH]c2ccccc12)C(=O)NCC(=O)N1CCC[C@H]1C(=O)N[C@@H](Cc1c[nH]cn1)C(=O)NCC(=O)N[C@@H](CC(=O)O)C(=O)N[C@@H](CCC(=O)O)C(=O)N[C@@H](CC(=O)O)C(N)=O` [ETEFIAWGPHGDED] (Ac-ETEFIAWGPHGDED-NH2), the Ki was 38 ± 1 nM.

On to `CC[C@H](C)[C@H](NC(=O)[C@H](Cc1ccccc1)NC(=O)[C@H](CCC(=O)O)NC(=O)[C@@H](NC(=O)[C@H](CCC(=O)O)NC(C)=O)[C@@H](C)O)C(=O)N[C@@H](C)C(=O)N[C@@H](Cc1c[nH]c2ccccc12)C(=O)NCC(=O)N1CCC[C@H]1C(=O)N[C@@H](CO)C(=O)NCC(=O)N[C@@H](CC(=O)O)C(=O)N[C@@H](CCC(=O)O)C(=O)N[C@@H](CC(=O)O)C(N)=O` [ETEFIAWGPSGDED] (Ac-ETEFIAWGPSGDED-NH2), for which the Ki was 32 ± 1 nM.

With `CC[C@H](C)[C@H](NC(=O)[C@H](Cc1ccccc1)NC(=O)[C@H](CCC(=O)O)NC(=O)[C@@H](NC(=O)[C@H](CCC(=O)O)NC(C)=O)[C@@H](C)O)C(=O)N[C@@H](C)C(=O)N[C@@H](Cc1c[nH]c2ccccc12)C(=O)NCC(=O)N1CCC[C@H]1C(=O)N[C@H](C(=O)N[C@@H](Cc1ccccc1)C(=O)N[C@@H](CC(=O)O)C(=O)N[C@@H](CCC(=O)O)C(=O)N[C@@H](CC(=O)O)C(N)=O)[C@@H](C)O` [ETEFIAWGPTFDED], the Ki was 46 ± 2 nM.

As to `CC[C@H](C)[C@H](NC(=O)[C@H](Cc1ccccc1)NC(=O)[C@H](CCC(=O)O)NC(=O)[C@@H](NC(=O)[C@H](CCC(=O)O)NC(C)=O)[C@@H](C)O)C(=O)N[C@@H](C)C(=O)N[C@@H](Cc1c[nH]c2ccccc12)C(=O)NCC(=O)N1CCC[C@H]1C(=O)N[C@H](C(=O)NCC(=O)N[C@@H](Cc1c[nH]cn1)C(=O)N[C@@H](CCC(=O)O)C(=O)N[C@@H](CC(=O)O)C(N)=O)[C@@H](C)O` [ETEFIAWGPTGHED] (Ac-ETEFIAWGPTGHED-NH2), the Ki is 60 ± 4 nM.

Turning to `CC[C@H](C)[C@H](NC(=O)[C@H](Cc1ccccc1)NC(=O)[C@H](CCC(=O)O)NC(=O)[C@@H](NC(=O)[C@H](CCC(=O)O)NC(C)=O)[C@@H](C)O)C(=O)N[C@@H](C)C(=O)N[C@@H](Cc1c[nH]c2ccccc12)C(=O)NCC(=O)N1CCC[C@H]1C(=O)N[C@H](C(=O)NCC(=O)N[C@@H](Cc1ccc(O)cc1)C(=O)N[C@@H](CCC(=O)O)C(=O)N[C@@H](CC(=O)O)C(N)=O)[C@@H](C)O` [ETEFIAWGPTGYED] (Ac-ETEFIAWGPTGYED-NH2), the Ki is 41 ± 1 nM.

The assay is the same for the next values; noted with them: Table 16, ncAAs incorporated peptides; read-out: Ki (nM) mean ± SEM.
For `CC[C@H](C)[C@H](NC(=O)[C@H](Cc1ccccc1)NC(=O)[C@H](CCC(=O)O)NC(=O)[C@@H](NC(=O)[C@H](CCC(=O)O)NC(C)=O)[C@@H](C)O)C(=O)N[C@@H](CS(=O)(=O)O)C(=O)N[C@@H](Cc1c[nH]c2ccccc12)C(=O)NCC(=O)N1CCC[C@H]1C(=O)N[C@H](C(=O)NCC(=O)N[C@@H](CC(=O)O)C(=O)N[C@@H](CCC(=O)O)C(=O)N[C@@H](CC(=O)O)C(N)=O)[C@@H](C)O` [ETEFI(Cya)WGPTGDED, Ac-ETEFI(Cya)WGPTGDED-NH2] (Ac-ETEFI[Cya]WGPTGDED-NH2), the Ki was 12 ± 0.3 nM.

The same assay, now with this note: purified peptides; read-out: Ki.
In the case of `CC[C@H](C)[C@H](NC(=O)[C@H](Cc1ccccc1)NC(=O)[C@H](CCC(=O)O)NC(=O)[C@@H](NC(=O)[C@H](CCC(=O)O)NC(C)=O)[C@@H](C)O)C(=O)N[C@@H](CS(=O)(=O)O)C(=O)N[C@@H](Cc1c[nH]c2ccccc12)C(=O)NCC(=O)N1CCC[C@H]1C(=O)N[C@H](C(=O)NCC(=O)N[C@@H](CC(=O)O)C(=O)N[C@@H](CCC(=O)O)C(=O)N[C@@H](CC(=O)O)C(N)=O)[C@@H](C)O` [ETEFI(Cya)WGPTGDED, Ac-ETEFI(Cya)WGPTGDED-NH2] (Ac-ETEFI[Cya]WGPTGDED-NH2), the Ki is 11.8 nM.
